Results: patent US11701389B2, “Methods of preserving mesenchymal stem cells” (Emory University, priority 2016, dated 2023)
Where a SMILES comes first, the peptide text is derived from it. The star is where a group is joined. Cbz = O=C(OCc1ccccc1)*; CH2F = FC*

Test system: T cell proliferation in SEB activated PBMCs
Assay: MSC and PBMC coculture, Ki67 T cell proliferation assay
Assay type: cell-based, human
Conditions: for inhibition of T cell proliferation by frozen-thawed MSCs pretreated with inhibitor prior to cryopreservation: Z-VAD-FMK 50 uM or 3-Methyl Adenine 1 mM pretreatment, FIG. 5A, 5B

Row | SMILES | effect of IDO blocking on suppression of T-cell proliferation by IFNgamma Cryo MSCs (1 mM added to coculture, FIG. 5F) | inhibition of T cell proliferation by frozen-thawed MSCs pretreated with inhibitor prior to cryopreservation
1 | Cn1cc(C[C@H](N)C(=O)O)c2ccccc21 (racemic) [1-Methyl Tryptophan] | negates the suppressive effect | –
2 | Cn1cnc(N)c2ncnc1-2 [3-Methyl Adenine] | – | defective in inhibiting T cell proliferation
3 | COC(=O)C[C@H](NC(=O)[C@H](C)NC(=O)[C@@H](NC(=O)OCc1ccccc1)C(C)C)C(=O)CF [Z-VAD-FMK] (Cbz-Val-Ala-Asp(OMe)-CH2F) | – | defective in inhibiting T cell proliferation
